The supplement of paper PMC4862054

Key:
Assay in all cases: normalised response (% of control), CellTiter-Glo; higher = more viable cells (100 = DMSO, 0 = benzethonium chloride kill control)
Settings in all cases: incubation time: 72 h
HCC1143 = test system: HCC1143
Outline: (§1)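 Normalised signals at single concentrations make up the values. They come from breast cancer cell lines seeded (20 µl suspension) into 384-well plates with compound at 5 concentrations in 10-fold steps over a compound-specific 10,000-fold range, incubated 72 h, and read for CellTox Green fluorescence then CellTiter-Glo luminescence. Each plate was normalised to 0.1 % DMSO (100) and a positive kill control (0).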

MCF-10A = test system: MCF-10A
Outline: as §1

CAL-148 = test system: CAL-148
Outline: as §1

MDA-MB-453 = test system: MDA-MB-453
Outline: as §1

HDQ-P1 = test system: HDQ-P1
Outline: as §1

CAL-51 = test system: CAL-51
Outline: as §1

BT-474 = test system: BT-474
Outline: as §1

MDA-MB-231 = test system: MDA-MB-231
Outline: as §1

MFM-223 = test system: MFM-223
Outline: as §1

CAL-120 = test system: CAL-120
Outline: as §1

CAL-85-1 = test system: CAL-85-1
Outline: as §1

HCC1937 = test system: HCC1937
Outline: as §1

BT-549 = test system: BT-549
Outline: as §1

DU-4475 = test system: DU-4475
Outline: as §1

HCC1599 = test system: HCC1599
Outline: as §1

MDA-MB-468 = test system: MDA-MB-468
Outline: as §1

SK-BR-3 = test system: SK-BR-3
Outline: as §1

Hs578T = test system: Hs578T
Outline: as §1

MDA-MB-436 = test system: MDA-MB-436
Outline: as §1

Structure (SMILES)	normalised response (HCC1143)	normalised response (MCF-10A)	normalised response (CAL-148)	normalised response (MDA-MB-453)	normalised response (HDQ-P1)	normalised response (CAL-51)	normalised response (BT-474)	normalised response (MDA-MB-231)	normalised response (MFM-223)	normalised response (CAL-120)	normalised response (CAL-85-1)	normalised response (HCC1937)	normalised response (BT-549)	normalised response (DU-4475)	normalised response (HCC1599)	normalised response (MDA-MB-468)	normalised response (SK-BR-3)	normalised response (Hs578T)	normalised response (MDA-MB-436)
COc1nc(N)nc2c1ncn2[C@@H]1O[C@H](CO)[C@@H](O)[C@@H]1O [Nelarabine] (10 nM)	96.2%	88.7%	81.3%	88.1%	89.9%	77.6%	87.5%	97.4%	88%	90.8%	96.4%	102%	99.5%	98%	88.6%	90.5%	70.6%	96.5%	97.7%
Cc1ccc(Nc2nccc(N(C)c3ccc4c(C)n(C)nc4c3)n2)cc1S(N)(=O)=O [Pazopanib] (1 nM)	97.4%	94.8%	108%	125%	101%	98.5%	98.1%	96.8%	99.3%	95.4%	110%	96.2%	104%	109%	100%	106%	109%	99.8%	97.3%
CS(=O)(=O)N1CCN(Cc2cc3nc(-c4cccc5[nH]ncc45)nc(N4CCOCC4)c3s2)CC1 [Pictilisib] (10 nM)	99.8%	102%	105%	101%	95.3%	110%	98.3%	94.2%	96.7%	91.4%	103%	99.7%	95.7%	102%	102%	101%	105%	96.3%	98.9%
O=C(NC[C@H](O)CO)c1ccncc1Nc1ccc(I)cc1F [Pimasertib] (1 nM)	93.2%	82.8%	97.7%	105%	93.8%	62.2%	100%	105%	97.6%	99.8%	97.9%	100%	100%	99.9%	106%	97.5%	98.5%	97.2%	99.5%
O=C(CCBr)N1CCN(C(=O)CCBr)CC1 [Pipobroman] (1 nM)	99.4%	103%	111%	98.1%	104%	106%	96.6%	97.8%	99.1%	99.4%	103%	104%	105%	106%	105%	105%	115%	102%	91.7%
O=C(CCBr)N1CCN(C(=O)CCBr)CC1 [Pipobroman] (10 nM)	100%	109%	105%	104%	105%	89.7%	102%	98.2%	101%	99.5%	102%	104%	101%	106%	117%	108%	107%	101%	98.8%
c1cc(CN2CCCNCCNCCCNCC2)ccc1CN1CCCNCCNCCCNCC1 [Plerixafor] (1 nM)	98.7%	81.4%	98.5%	87.1%	103%	82.4%	95.8%	96.9%	85.5%	102%	92.3%	95.9%	105%	91%	105%	97.3%	81.3%	98.2%	94.3%
C[C@]12C=CC(=O)C=C1CC[C@@H]1[C@@H]2[C@@H](O)C[C@@]2(C)[C@H]1CC[C@]2(O)C(=O)CO [Prednisolone] (1 nM)	96.9%	104%	110%	112%	101%	84.8%	106%	102%	102%	110%	96.9%	96.9%	112%	108%	102%	106%	110%	102%	102%
